The results in this text go back to US6150361A, “Triazineone compounds for treating diseases due to sarcosystis, neospora and toxoplasma” (Bayer Corporation, priority 1998, dated 2000).

Holding throughout (type): in vivo
Data set [1] is described as follows: Pharmacokinetics of a single oral dose of Toltrazuril in horses (blood levels). Conditions: single oral dose of Toltrazuril 10 mg/kg; for concentration at 24 h / Concentration in mg/l of Blood, 24 hours: 24 h post treatment; for concentration at 24 h: read-out: Concentration in mg/l of Blood, 24 hours; for concentration at 48 h / Concentration in mg/l of Blood, 48 hours: 48 h post treatment; for concentration at 48 h: read-out: Concentration in mg/l of Blood, 48 hours; for concentration at 72 h / Concentration in mg/l of Blood, 72 hours: 72 h post treatment; for concentration at 72 h: read-out: Concentration in mg/l of Blood, 72 hours; for Concentration in mg/l of Blood, 24 hours: 1440 min; for Concentration in mg/l of Blood, 48 hours: 2880 min; for Concentration in mg/l of Blood, 72 hours: 4320 min. Here is the method: A pharmacokinetic study was conducted in horses comparing blood levels of Toltrazuril, Ponazuril and Toltrazuril Sulfoxide at various times post a single dose of Toltrazuril. All horses received a single dose of 10 mg/kg, which was administered orally as a suspension. Blood samples were drawn at the time of treatment (0) and at 0.25, 0.5, 1, 2, 4, 6, 12, 24, 48 and 72 hours post treatment. […] This was an indication that Ponazuril, alone, would produce acceptable blood levels that are envisioned to pass the blood-brain barrier, a characteristic required to treat neurological diseases such as those caused by Sarcocystis neurona, Toxoplasma gondii, Neospora caninum and Neospora

Data set [2] in a line: Drug levels in serum after repeated doses of Toltrazuril in horses. The following applies: for AVG drug level in serum, 48 Hrs / AVG drug level in serum, 96 Hrs / AVG drug level in serum, 240 Hrs: group average; for Drug level in serum, 48 Hrs / Drug level in serum, 96 Hrs / Drug level in serum, 240 Hrs: individual horse. More on the design: unit not given here. Here is the method:
(§1) This experiment was conducted in order to determine whether triazineones such as Toltrazuril can pass the blood-brain barrier. Normal horses were divided into three groups of three horses per group. Group 1 horses received Toltrazuril administered orally as a 5% suspension at a dose level of 2.5 mg/Kg. Group 2 horses received Toltrazuril administered orally as a 5% suspension at a dose level of 5.0 mg/Kg. Group 3 horses received Toltrazuril administered orally as a 5% suspension at a dose level of 7.5 mg/Kg. The dosing was repeated daily for 10 days. Blood samples were drawn at 48, 96 and 240 hours and the concentration of Toltrazuril, Toltrazuril sulfoxide and Ponazuril in the serum was measured. Ten days after the start of the treatment (Day 10), a sample of cerebral spinal fluid was removed from each horse and the concentrations of Toltrazuril, Toltrazuril Sulfoxide and Ponazuril were again measured in these samples. The concentrations of Toltrazuril, Toltrazuril Sulfoxide and Ponazuril in the serum and cerebral spinal fluid are reported in TABLES 5a and 5b.

A short description of data set [3]: Drug levels in cerebral spinal fluid after repeated doses of Toltrazuril in horses. More on the design: Drug level in Cerebral Spinal Fluid, Day 10 / AVG drug level in Cerebral Spinal Fluid, Day 10: unit not given here. Conditions: Day 10; for AVG drug level in Cerebral Spinal Fluid, Day 10: group average; for Drug level in Cerebral Spinal Fluid, Day 10: individual horse. Here is the method:
as §1

Data set [4] can be described thus: Passing of the blood-brain barrier in horses. Conditions: after oral Toltrazuril daily for 10 days. Here is the method:
as §1

[5] abbreviates: horse, blood, po, 10 mg/kg, suspension, one value per horse (A-F).
[6] abbreviates: suspension, one value per horse (A-F), 10 mg/kg.
The mark [7] stands for this setting: Toltrazuril 2.5 mg/Kg oral daily for 10 days.
The mark [8] stands for this setting: Toltrazuril 5.0 mg/Kg oral daily for 10 days.
Setting [9] is: Toltrazuril 7.5 mg/Kg oral daily for 10 days.

SMILES strings stand for the structures. Several values for one entry are separate records, joined by “and”; a condition that tells them apart may be missing. Equal values may be shown once.

As for `Cc1cc(-n2c(=O)[nH]c(=O)n(C)c2=O)ccc1Oc1ccc([S+]([O-])C(F)(F)F)cc1` (centres unmarked) [Toltrazuril Sulfoxide], the concentration at 0.25 h in data set [1] (horse, blood, po, 10 mg/kg, suspension, 0.25 h post treatment, one value per horse (A-F), read-out: Concentration in mg/l of Blood, 0.25 hours) is less than 0.01 mg/L. For the same molecule, in data set [1] (setting [5]), the concentration at 24 h is 0.407 mg/L, the concentration at 48 h came out at 0.732 mg/L and the concentration at 72 h worked out at 0.592 mg/L. The “levels in serum/bloodstream of horses receiving Toltrazuril (in words)” value in data set [1] is “significant levels”. In addition, in data set [1] (setting [6]), the “Concentration in mg/l of Blood, 24 hours” value was 0.566 mg/L and 0.461 mg/L and 0.481 mg/L and 0.633 mg/L; the “Concentration in mg/l of Blood, 48 hours” value was 0.454 mg/L and 0.477 mg/L and 0.749 mg/L and 0.741 mg/L and 0.642 mg/L; the “Concentration in mg/l of Blood, 72 hours” value was 0.346 mg/L and 0.377 mg/L.

As for `Cc1cc(-n2c(=O)[nH]c(=O)n(C)c2=O)ccc1Oc1ccc(SC(F)(F)F)cc1` [Toltrazuril, reference compound], in data set [2] (setting [7]), the “AVG drug level in serum, 48 Hrs” value worked out at 6.70; the “AVG drug level in serum, 96 Hrs” value was 10.68; the “AVG drug level in serum, 240 Hrs” value is 13.37; the “Drug level in serum, 48 Hrs” value was 4.49 and 4.0 and 11.6. In addition, in data set [2] (setting [7]), the “Drug level in serum, 96 Hrs” value is 9.85 and 9.09 and 13.1; the “Drug level in serum, 240 Hrs” value was 15.29 and 9.60 and 15.21. Besides, in data set [2] (setting [8]), the “AVG drug level in serum, 48 Hrs” value turned out to be 8.57; the “AVG drug level in serum, 96 Hrs” value came to 15.46; the “AVG drug level in serum, 240 Hrs” value was determined as 19.68; the “Drug level in serum, 48 Hrs” value is 7.28 and 9.18 and 9.26. In data set [2] (setting [8]), the “Drug level in serum, 96 Hrs” value was 14.17 and 14.03 and 18.19; the “Drug level in serum, 240 Hrs” value is 24.92 and 16.54 and 17.59. Besides, in data set [2] (setting [9]), the “AVG drug level in serum, 48 Hrs” value is recorded as 10.18; the “AVG drug level in serum, 96 Hrs” value worked out at 21.92; the “AVG drug level in serum, 240 Hrs” value is on record as 25.95; the “Drug level in serum, 48 Hrs” value is 9.90 and 10.46. Further, in data set [2] (setting [9]), the “Drug level in serum, 96 Hrs” value was 27.74 and 19.55 and 18.47; the “Drug level in serum, 240 Hrs” value is 30.08 and 24.15 and 23.53. Further, in data set [3] (setting [7]), the “AVG drug level in Cerebral Spinal Fluid, Day 10” value (“AVG drug level … Day 10” below) worked out at 0.15; the “Drug level in Cerebral Spinal Fluid, Day 10” value was 0.23 and 0.06 and 0.15. In data set [3] (setting [8]), the “AVG drug level … Day 10” value came out at 0.19; the “Drug level in Cerebral Spinal Fluid, Day 10” value is 0.19 and 0.12 and 0.26. In data set [3] (setting [9]), the “AVG drug level … Day 10” value is reported as 0.39; the “Drug level in Cerebral Spinal Fluid, Day 10” value is 0.50 and 0.21 and 0.45. Further, the “crossing of the blood-brain barrier” value in data set [4] was “effectively cross the blood-brain barrier”. In addition, in data set [1] (setting [5]), the concentration at 24 h worked out at 6.43 mg/L, the concentration at 48 h stood at 7.61 mg/L and the concentration at 72 h is 6.65 mg/L. The “Concentration in mg/l of Blood, 0.25 hours” value in data set [1] (suspension, 0.25 h post treatment, one value per horse (A-F), 10 mg/kg, 15 min) came to 0.061 mg/L. Further, the “Concentration in mg/l of Blood, 1 hour” value in data set [1] (suspension, 1 h post treatment, one value per horse (A-F), 10 mg/kg, 60 min) came out at 3.286 mg/L. In addition, in data set [1] (setting [6]), the “Concentration in mg/l of Blood, 24 hours” value was 11.690 mg/L and 7.236 mg/L and 8.694 mg/L and 10.224 mg/L; the “Concentration in mg/l of Blood, 48 hours” value is 6.677 mg/L and 9.758 mg/L and 8.234 mg/L and 6.869 mg/L and 7.096 mg/L; the “Concentration in mg/l of Blood, 72 hours” value is 5.058 mg/L and 7.633 mg/L.
